Test results taken from the NIST ThermoML archive (doi:10.1021/je700648c).
“And” between values parts separate entries of the source, which are not always exact repeats. Equal values may be shown once.

Assays:
[1] = xn = mol fraction of the nth substance listed; conditions: 101 kPa, Liquid
[2] = 101 kPa, Liquid

CCn1cc[n+](C)c1.O=S(=O)([N-]S(=O)(=O)C(F)(F)C(F)(F)F)C(F)(F)C(F)(F)F + CC(C)=O
mass density [kg/m3], [1]
Conditions	298.15 K	303.15 K	313.15 K
x2 = 0	1593.2	1587.3	1576.7
x2 = 0.0807	1576.8	1571.1	1560.2
x2 = 0.1417	1563.1	1557.4	1546.4
x2 = 0.2521	1534.6	1528.8	1517.7
x2 = 0.2791	1526.6	1520.8	1509.6
x2 = 0.415	1479.2	1473.3	1462.2
x2 = 0.5195	1431.8	1425.8	1414.8
x2 = 0.5676	1405.5	1399.5	1388.4
x2 = 0.7092	1303.1	1297.2	1285.7
x2 = 0.755	1258.2	1252.2	1240.8
x2 = 0.8137	1188.4	1182.5	1170.8
x2 = 0.8927	1062	1055.9	1044.3
x2 = 0.9502	935	929.1	917.6

CC(C)=O [acetone]
[2]
Conditions	mass density [kg/m3]
298.15 K	784.1
303.15 K	778.4
313.15 K	766.9

CC(C)=O [acetone] + CCn1cc[n+](C)c1.O=S(=O)([N-]S(=O)(=O)C(F)(F)C(F)(F)F)C(F)(F)C(F)(F)F
[1], x1 = 1
Conditions	mass density [kg/m3]
298.15 K	784.1
303.15 K	778.4
313.15 K	766.9

CO [methanol] + CCn1cc[n+](C)c1.O=S(=O)([N-]S(=O)(=O)C(F)(F)C(F)(F)F)C(F)(F)C(F)(F)F
[1], x1 = 1
Conditions	mass density [kg/m3]
298.15 K	786.6
303.15 K	781.9
313.15 K	772.6

CCn1cc[n+](C)c1.O=S(=O)([N-]S(=O)(=O)C(F)(F)C(F)(F)F)C(F)(F)C(F)(F)F + CO
mass density [kg/m3], [1]
Conditions	x2 = 0	x2 = 0.0584	x2 = 0.1116	x2 = 0.1686	x2 = 0.2956	x2 = 0.5104	x2 = 0.6083	x2 = 0.706	x2 = 0.8237	x2 = 0.9033
298.15 K	1593.2	1586.2	1579.4	1571.3	1549.7	1494.6	1455.3	1398.9	1285.9	1148.2
303.15 K	1587.6	1580.5	1573.7	1565.6	1544	1488.9	1449.6	1393.2	1280.2	1142.6
313.15 K	1576.7	1569.5	1562.6	1554.5	1532.8	1477.7	1438.3	1382	1269.3	1132

CCn1cc[n+](C)c1.COCCOCCOS(=O)(=O)[O-] [1-ethyl-3-methylimidazolium 2-(2-methoxyethoxy) ethylsulfate] + CO
[1], 298.15 K
Conditions	speed of sound [m/s]
x2 = 0.1791	1677.6
x2 = 0.356	1647
x2 = 0.4548	1620
x2 = 0.5356	1597.2
x2 = 0.6298	1563.6
x2 = 0.7412	1499.4
x2 = 0.7987	1453.2
x2 = 0.8527	1387.5
x2 = 0.9011	1324.8
x2 = 0.9298	1270.8
x2 = 0.962	1201.2
x2 = 0.9829	1158

CCn1cc[n+](C)c1.O=S(=O)([N-]S(=O)(=O)C(F)(F)C(F)(F)F)C(F)(F)C(F)(F)F
[2]
Conditions	mass density
298.15 K	1593.2 kg/m3
303.15 K	1587.6 kg/m3 and 1587.3 kg/m3
313.15 K	1576.7 kg/m3
